Reference: the NIST ThermoML archive (doi:10.1016/j.jct.2013.09.043)
± gives the expanded uncertainty stated by the source.

Legend:
[1] = 101 kPa, Liquid; for viscosity: Capillary tube (Ostwald / Ubbelohde) method; for mass density: Vibrating tube method
[2] = xn = mol fraction of the nth substance listed; conditions: 101 kPa, Liquid; for viscosity: Capillary tube (Ostwald / Ubbelohde) method; for mass density: Vibrating tube method

| SMILES | viscosity ([1]; 298.15 K) [mPa·s] | mass density ([1]; 298.15 K) [kg/m3] | viscosity ([1]; 303.15 K) [mPa·s] | mass density ([1]; 303.15 K) [kg/m3] | viscosity ([1]; 308.15 K) [mPa·s] | mass density ([1]; 308.15 K) [kg/m3] | viscosity ([1]; 313.15 K) [mPa·s] | mass density ([1]; 313.15 K) [kg/m3] | further results |
| --- | --- | --- | --- | --- | --- | --- | --- | --- | --- |
| CCCCCC(C)O (stereo not drawn) [2-heptanol] | 5.296 ± 0.21 | 813.38 ± 1 | 4.315 ± 0.17 | 809.5 ± 1 | 3.535 ± 0.14 | 805.72 ± 1 | 2.96 ± 0.12 | 801.46 ± 1 | – |
| CCCCC(C)O (stereo not drawn) [2-hexanol] | 4.101 ± 0.17 | 810.14 ± 1 | 3.411 ± 0.14 | 806.13 ± 1 | 2.819 ± 0.12 | 802.06 ± 1 | 2.219 ± 0.09 | 797.96 ± 1 | – |
| CCC(C)O (stereo not drawn) [butan-2-ol] | 3.034 ± 0.12 | 803.09 ± 1 | 2.527 ± 0.1 | 798.89 ± 1 | 2.125 ± 0.086 | 795.04 ± 1 | 1.798 ± 0.073 | 790.15 ± 1 | – |
| CCC(C)O (stereo not drawn) [butan-2-ol] + NC=O | – | – | – | – | – | – | – | – | viscosity ([2]; 298.15 K, x2 = 0): 3.034 ± 0.12 mPa·s; mass density ([2]; 298.15 K, x2 = 0): 803.09 ± 1 kg/m3; viscosity ([2]; 303.15 K, x2 = 0): 2.527 ± 0.1 mPa·s; mass density ([2]; 303.15 K, x2 = 0): 798.89 ± 1 kg/m3; viscosity ([2]; 308.15 K, x2 = 0): 2.125 ± 0.086 mPa·s; mass density ([2]; 308.15 K, x2 = 0): 795.04 ± 1 kg/m3; viscosity ([2]; 313.15 K, x2 = 0): 1.798 ± 0.073 mPa·s; mass density ([2]; 313.15 K, x2 = 0): 790.15 ± 1 kg/m3 |
| NC=O [formamide] | 3.305 ± 0.13 | 1129 ± 1 | 2.975 ± 0.12 | 1125.1 ± 1 | 2.64 ± 0.11 | 1120.98 ± 1 | 2.42 ± 0.098 | 1116.85 ± 1 | – |
| NC=O [formamide] + CCCC(C)O | – | – | – | – | – | – | – | – | viscosity ([2]; 298.15 K, x1 = 1): 3.305 ± 0.13 mPa·s; mass density ([2]; 298.15 K, x1 = 1): 1129 ± 1 kg/m3; viscosity ([2]; 303.15 K, x1 = 1): 2.975 ± 0.12 mPa·s; mass density ([2]; 303.15 K, x1 = 1): 1125.1 ± 1 kg/m3; viscosity ([2]; 308.15 K, x1 = 1): 2.64 ± 0.11 mPa·s; mass density ([2]; 308.15 K, x1 = 1): 1120.98 ± 1 kg/m3; viscosity ([2]; 313.15 K, x1 = 1): 2.42 ± 0.098 mPa·s; mass density ([2]; 313.15 K, x1 = 1): 1116.85 ± 1 kg/m3 |
| NC=O [formamide] + CCCCC(C)O | – | – | – | – | – | – | – | – | viscosity ([2]; 298.15 K, x1 = 1): 3.305 ± 0.13 mPa·s; mass density ([2]; 298.15 K, x1 = 1): 1129 ± 1 kg/m3; viscosity ([2]; 303.15 K, x1 = 1): 2.975 ± 0.12 mPa·s; mass density ([2]; 303.15 K, x1 = 1): 1125.1 ± 1 kg/m3; viscosity ([2]; 308.15 K, x1 = 1): 2.64 ± 0.11 mPa·s; mass density ([2]; 308.15 K, x1 = 1): 1120.98 ± 1 kg/m3; viscosity ([2]; 313.15 K, x1 = 1): 2.42 ± 0.098 mPa·s; mass density ([2]; 313.15 K, x1 = 1): 1116.85 ± 1 kg/m3 |
| NC=O [formamide] + CCCCCC(C)O | – | – | – | – | – | – | – | – | viscosity ([2]; 298.15 K, x1 = 1): 3.305 ± 0.13 mPa·s; mass density ([2]; 298.15 K, x1 = 1): 1129 ± 1 kg/m3; viscosity ([2]; 303.15 K, x1 = 1): 2.975 ± 0.12 mPa·s; mass density ([2]; 303.15 K, x1 = 1): 1125.1 ± 1 kg/m3; viscosity ([2]; 308.15 K, x1 = 1): 2.64 ± 0.11 mPa·s; mass density ([2]; 308.15 K, x1 = 1): 1120.98 ± 1 kg/m3; viscosity ([2]; 313.15 K, x1 = 1): 2.42 ± 0.098 mPa·s; mass density ([2]; 313.15 K, x1 = 1): 1116.85 ± 1 kg/m3 |
| CCCC(C)O (stereo not drawn) [pentan-2-ol] | 3.423 ± 0.14 | 805.05 ± 1 | 2.834 ± 0.12 | 800.88 ± 1 | 2.348 ± 0.095 | 796.89 ± 1 | 1.979 ± 0.08 | 792.62 ± 1 | – |
| CC(C)O [propan-2-ol] | 2.077 ± 0.084 | 780.95 ± 1 | 1.787 ± 0.072 | 776.79 ± 1 | 1.558 ± 0.063 | 772.39 ± 1 | 1.351 ± 0.055 | 767.76 ± 1 | – |
| CC(C)O [propan-2-ol] + NC=O | – | – | – | – | – | – | – | – | viscosity ([2]; 298.15 K, x2 = 0): 2.077 ± 0.084 mPa·s; mass density ([2]; 298.15 K, x2 = 0): 780.95 ± 1 kg/m3; viscosity ([2]; 303.15 K, x2 = 0): 1.787 ± 0.072 mPa·s; mass density ([2]; 303.15 K, x2 = 0): 776.79 ± 1 kg/m3; viscosity ([2]; 308.15 K, x2 = 0): 1.558 ± 0.063 mPa·s; mass density ([2]; 308.15 K, x2 = 0): 772.39 ± 1 kg/m3; viscosity ([2]; 313.15 K, x2 = 0): 1.351 ± 0.055 mPa·s; mass density ([2]; 313.15 K, x2 = 0): 767.76 ± 1 kg/m3 |
